In one series the target is T1, HDAC6 (Homo sapiens, UniProt Q9UBN7).
T1 sequence (Q9UBN7 1-1215): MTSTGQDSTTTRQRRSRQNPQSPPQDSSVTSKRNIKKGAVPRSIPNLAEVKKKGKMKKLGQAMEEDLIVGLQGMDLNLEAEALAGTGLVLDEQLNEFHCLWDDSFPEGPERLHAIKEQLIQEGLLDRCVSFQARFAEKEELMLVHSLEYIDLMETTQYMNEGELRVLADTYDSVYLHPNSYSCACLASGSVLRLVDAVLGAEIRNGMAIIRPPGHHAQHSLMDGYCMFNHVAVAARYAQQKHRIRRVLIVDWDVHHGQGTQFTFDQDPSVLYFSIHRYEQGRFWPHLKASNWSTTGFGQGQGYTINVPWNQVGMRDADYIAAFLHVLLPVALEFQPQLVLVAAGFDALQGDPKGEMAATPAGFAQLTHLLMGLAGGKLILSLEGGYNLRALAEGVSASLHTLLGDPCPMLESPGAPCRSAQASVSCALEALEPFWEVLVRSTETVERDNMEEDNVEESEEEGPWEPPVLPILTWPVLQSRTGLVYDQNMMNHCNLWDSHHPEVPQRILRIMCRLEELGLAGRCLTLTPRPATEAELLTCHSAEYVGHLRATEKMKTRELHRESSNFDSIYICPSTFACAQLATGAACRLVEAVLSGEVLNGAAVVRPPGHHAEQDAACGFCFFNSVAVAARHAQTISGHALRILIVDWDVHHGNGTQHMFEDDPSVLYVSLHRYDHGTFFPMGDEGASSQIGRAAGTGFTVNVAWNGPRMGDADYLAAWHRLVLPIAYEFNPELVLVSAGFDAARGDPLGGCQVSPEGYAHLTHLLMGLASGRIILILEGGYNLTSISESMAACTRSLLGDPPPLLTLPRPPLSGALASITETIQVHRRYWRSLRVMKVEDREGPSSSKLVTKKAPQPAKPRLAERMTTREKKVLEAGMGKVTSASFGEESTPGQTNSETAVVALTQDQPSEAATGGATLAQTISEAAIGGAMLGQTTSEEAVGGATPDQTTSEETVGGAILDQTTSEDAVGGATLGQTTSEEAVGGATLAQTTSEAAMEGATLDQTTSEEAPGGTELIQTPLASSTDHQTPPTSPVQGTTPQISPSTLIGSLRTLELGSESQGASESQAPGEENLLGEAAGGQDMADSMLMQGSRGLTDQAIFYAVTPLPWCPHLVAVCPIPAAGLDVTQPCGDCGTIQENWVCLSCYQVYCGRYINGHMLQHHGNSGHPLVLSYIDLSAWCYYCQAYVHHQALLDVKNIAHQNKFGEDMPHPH
The settings on record: ref Zhou et al. [2019]; cited from earlier work.

Series [1] is described as follows: Solubility under the assay conditions. It counts as physicochemical. Conditions: HDAC, BCL‐2 and cell assays; data not reliable, not reported.

The structures appear in SMILES notation. Entries after “also recorded” stand apart in the source; their conditions may differ.

On to `O=C(CCCCCCC(=O)Nc1ccccc1)NO` [SAHA], for which, on HDAC6, the “selectivity for HDAC6 over HDAC1” value is listed as “about threefold”.

In the case of `CC1(C)CCC(CN2CCN(c3ccc(C(=O)NS(=O)(=O)c4ccc(NCc5ccc(C(=O)Nc6ccc(-c7cccs7)cc6N)cc5)c([N+](=O)[O-])c4)c(Oc4cnc5[nH]ccc5c4)c3)CC2)=C(c2ccc(Cl)cc2)C1` [AMC‐4‐074, 2‐((1H‐pyrrolo[2,3‐b]pyridin‐5‐yl)oxy)‐N‐((4‐((4‐((2‐amino‐4‐(thiophen‐2‐yl)phenyl)carbamoyl)benzyl)amino)‐3‐nitrophenyl)sulfonyl)‐4‐(4‐((4′‐chloro‐5,5‐dimethyl‐3,4,5,6‐tetrahydro‐[1,1′‐biphenyl]‐2‐yl)methyl)piperazin‐1‐yl)benzamide], in series [1], the “solubility under the assay conditions” value is given as “solubility proved problematic; also recorded: Limited solubility”. Consider `CC1(C)CCC(CN2CCN(c3ccc(C(=O)NS(=O)(=O)c4ccc(NCC5CCN(c6c(F)cc(C(=O)NO)cc6F)CC5)c([N+](=O)[O-])c4)c(Oc4cnc5[nH]ccc5c4)c3)CC2)=C(c2ccc(Cl)cc2)C1` [AMC‐4‐101, 4‐(4‐(((4‐(N‐(2‐((1H‐pyrrolo[2,3‐b]pyridin‐5‐yl)oxy)‐4‐(4‐((4′‐chloro‐5,5‐dimethyl‐3,4,5,6‐tetrahydro‐[1,1′‐biphenyl]‐2‐yl)methyl)piperazin‐1‐yl)benzoyl)sulfamoyl)‐2‐nitrophenyl)amino)methyl)piperidin‐1‐yl)‐3,5‐difluoro‐N‐hydroxybenzamide], for which the “solubility under the assay conditions” value in series [1] was “Limited solubility”.
